Measured values taken from patent publication US7354936B2, “2-phenylpyran-4-one derivatives” (Almirall AG, priority 2000, dated 2008).

Experiments:
[1] = biological target: T1, COX-2 (Homo sapiens, UniProt P35354); experiment: COX-2 activity in human whole blood (PGE2, LPS-induced); assay type: cell-based; conditions: for IC50: LPS 24 h at 37° C., PGE2 by ELISA; for Ratio COX-1/COX-2: ratio of COX-1/COX-2 IC50 values
T1 construct: incubated in the presence of LPS (10:g/ml) for 24 h at 37° C. in order to induce the COX-2 expression; from tissue; host or cells: human whole blood (heparinized) from healthy volunteers, LPS-stimulated for 24 h
T1 sequence (P35354 18-604): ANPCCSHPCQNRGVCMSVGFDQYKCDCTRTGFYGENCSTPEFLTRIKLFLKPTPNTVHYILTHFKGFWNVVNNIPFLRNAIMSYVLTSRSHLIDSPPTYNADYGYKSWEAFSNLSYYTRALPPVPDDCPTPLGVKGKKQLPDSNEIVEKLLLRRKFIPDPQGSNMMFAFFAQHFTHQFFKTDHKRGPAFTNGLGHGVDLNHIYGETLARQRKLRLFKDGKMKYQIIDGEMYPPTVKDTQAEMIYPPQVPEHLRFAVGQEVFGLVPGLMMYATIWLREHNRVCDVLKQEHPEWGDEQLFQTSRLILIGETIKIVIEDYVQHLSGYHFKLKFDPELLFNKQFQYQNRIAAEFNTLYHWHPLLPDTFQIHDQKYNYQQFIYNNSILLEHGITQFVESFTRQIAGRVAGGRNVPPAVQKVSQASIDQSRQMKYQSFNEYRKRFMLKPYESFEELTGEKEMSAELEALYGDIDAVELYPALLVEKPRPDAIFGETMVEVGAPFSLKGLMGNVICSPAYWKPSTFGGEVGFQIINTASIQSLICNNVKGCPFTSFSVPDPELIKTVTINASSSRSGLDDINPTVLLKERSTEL

[2] = biological target: T2, COX-1 (Homo sapiens, UniProt P23219); experiment: COX-1 activity in human whole blood (TXB2, calcium ionophore A23187); assay type: cell-based; conditions: for IC50: 1 h at 37° C., TXB2 by ELISA
T2 construct: Fresh blood from healthy volunteers; from tissue; host or cells: human whole blood (heparinized) from healthy volunteers
T2 sequence (P23219 24-599): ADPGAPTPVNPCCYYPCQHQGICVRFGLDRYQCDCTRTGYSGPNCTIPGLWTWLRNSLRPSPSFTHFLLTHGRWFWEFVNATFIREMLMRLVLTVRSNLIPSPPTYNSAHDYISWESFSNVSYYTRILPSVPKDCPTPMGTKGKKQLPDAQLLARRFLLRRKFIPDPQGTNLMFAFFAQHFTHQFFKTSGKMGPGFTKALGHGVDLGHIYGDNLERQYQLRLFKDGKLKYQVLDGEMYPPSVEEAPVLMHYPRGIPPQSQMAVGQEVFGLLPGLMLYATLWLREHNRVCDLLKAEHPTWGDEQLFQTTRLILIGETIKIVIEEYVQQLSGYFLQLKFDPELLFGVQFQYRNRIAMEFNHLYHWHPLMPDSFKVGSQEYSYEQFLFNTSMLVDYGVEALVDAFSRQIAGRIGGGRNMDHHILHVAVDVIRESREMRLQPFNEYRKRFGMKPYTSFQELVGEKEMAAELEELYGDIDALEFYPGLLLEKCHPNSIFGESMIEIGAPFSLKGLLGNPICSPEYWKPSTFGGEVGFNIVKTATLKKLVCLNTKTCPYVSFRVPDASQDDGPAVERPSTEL

Compound | melting point [°C] | IC50 [1] [nM] | Ratio COX-1/COX-2 [1] | IC50 [2] [nM] | inhibition at 100 µM ([2]; read-out: COX-1 inhibition at 100 μM, at 100 μM) [%]
Cc1cc(=O)c(Oc2ccc(Cl)cc2C)c(-c2ccc(S(C)(=O)=O)cc2)o1 [Example 2, 3-(4-Chloro-2-methylphenoxy)-2-(4-methanesulfonylphenyl)-6-methyl pyran-4-one] |  | 130 | 296 | 38500 | 
Cc1cccc(Oc2c(-c3ccc(S(C)(=O)=O)cc3)oc(C)cc2=O)c1 [Example 11, 2-(4-Methanesulfonylphenyl)-6-methyl-3-(3-methylphenoxy)pyran-4-one] | 162 | 300 | 47 | 14200 | 
CCc1oc(-c2ccc(S(C)(=O)=O)cc2)c(Oc2ccc(F)cc2F)c(=O)c1C [Example 13, 3-(2,4-Difluorophenoxy)-6-ethyl-2-(4-methanesulfonylphenyl)-5-methyl pyran-4-one] | 200 |  |  |  | 
Cc1cc(=O)c(Oc2ccc(Br)cc2F)c(-c2ccc(S(C)(=O)=O)cc2)o1 [Example 6, 3-(4-Bromo-2-fluorophenoxy)-2-(4-methanesulfonylphenyl)-6-methyl pyran-4-one] |  |  | 268 | 40200 | 
Cc1cc(=O)c(Oc2ccc(Br)cc2Br)c(-c2ccc(S(C)(=O)=O)cc2)o1 [Example 8, 3-(2,4-Dibromophenoxy)-2-(4-methanesulfonylphenyl)-6-methyl-pyran-4-one] |  | 1130 | 51 | 57500 | 
Cc1cc(=O)c(Oc2ccc(Br)cc2Cl)c(-c2ccc(S(C)(=O)=O)cc2)o1 [Example 7, 3-(4-Bromo-2-chlorophenoxy)-2-(4-methanesulfonylphenyl)-6-methyl pyran-4-one] |  | 210 |  |  | 
Cc1oc(-c2ccc(S(C)(=O)=O)cc2)c(Oc2ccc(F)cc2F)c(=O)c1Cl [Example 14, 3-Chloro-5-(2,4-difluorophenoxy)-6-(4-methanesulfonylphenyl)-2-methyl pyran-4-one] | 210 |  |  |  | 
Cc1ccc(Oc2c(-c3ccc(S(C)(=O)=O)cc3)oc(C)cc2=O)c(Cl)c1 [Example 3, 3-(2-Chloro-4-methylphenoxy)-2-(4-methanesulfonylphenyl)-6-methyl pyran-4-one] |  | 240 | 68 | 16300 | 
Cc1ccc(Oc2c(-c3ccc(S(C)(=O)=O)cc3)oc(C)cc2=O)c(F)c1 [Example 12, 3-(2-Fluoro-4-methylphenoxy)-2-(4-methanesulfonylphenyl)-6-methyl pyran-4-one] | 171 |  |  |  | 
Cc1cc(=O)c(Oc2ccc(F)cc2C)c(-c2ccc(S(C)(=O)=O)cc2)o1 [Example 1, 3-(4-Fluoro-2-methylphenoxy)-2-(4-methanesulfonylphenyl)-6-methyl pyran-4-one] | 146 | 180 | 118 |  | 

Next, values leading:

melting point [°C] | IC50 [1] [nM] | Ratio COX-1/COX-2 [1] | IC50 [2] [nM] | inhibition at 100 µM ([2]; read-out: COX-1 inhibition at 100 μM, at 100 μM) [%] | Compound
279 |  |  |  |  | Cc1oc(-c2ccc(S(C)(=O)=O)cc2)c(Oc2ccc(F)cc2)c(=O)c1Cl [Example 15, 3-Chloro-5-(4-fluorophenoxy)-6-(4-methanesulfonylphenyl)-2-methyl pyran-4-one]
245 | 420 | 1070 | 450000 |  | CS(=O)(=O)c1ccc(-c2oc(C(=O)O)cc(=O)c2Oc2ccc(F)cc2F)cc1 [Example 32, 5-(2,4-Difluorophenoxy)-6-(4-methanesulfonylphenyl)-4-oxo-4H-pyran-2-carboxylic acid]
251 | 820 | 93 | 76700 |  | Cc1oc(-c2ccc(S(C)(=O)=O)cc2)c(Oc2ccc(Cl)cc2)c(=O)c1Br [Example 18, 3-Bromo-5-(4-chlorophenoxy)-6-(4-methanesulfonylphenyl)-2-methyl pyran-4-one]
274 | 530 | 74 | 26000 |  | Cc1oc(-c2ccc(S(C)(=O)=O)cc2)c(Oc2ccc(Cl)cc2)c(=O)c1Cl [Example 16, 3-Chloro-5-(4-chlorophenoxy)-6-(4-methanesulfonylphenyl)-2-methyl pyran-4-one]
180 | 140 | 359 | 50300 |  | CC(=O)OCc1cc(=O)c(Oc2ccc(F)cc2)c(-c2ccc(S(C)(=O)=O)cc2)o1 [Example 30, Acetic acid [5-(4-fluorophenoxy)-6-(4-methanesulfonylphenyl)-4-oxo-4H-pyran-2-yl]methyl ester]
115 | 1100 | >90 |  | 17 | CC(=O)OCc1cc(=O)c(Oc2ccc(Cl)cc2)c(-c2ccc(S(C)(=O)=O)cc2)o1 [Example 31, Acetic acid [5-(4-chlorophenoxy)-6-(4-methanesulfonylphenyl)-4-oxo-4H-pyran-2-yl]methyl ester]
 | 320 | 270 | 86300 |  | COCc1cc(=O)c(Oc2ccc(F)cc2)c(-c2ccc(S(C)(=O)=O)cc2)o1 [Example 27, 3-(4-Fluorophenoxy)-2-(4-methanesulfonylphenyl)-6-methoxymethylpyran-4-one]
160 | 97 | 294 | 28500 |  | Cc1ccc(Oc2c(-c3ccc(S(C)(=O)=O)cc3)oc(C(F)F)cc2=O)cc1 [Example 36, 6-(1,1-Difluoromethyl)-2-(4-methanesulfonylphenyl)-3-(4-methylphenoxy)pyran-4-one]
175 |  |  |  |  | CC(=O)OCc1cc(=O)c(Oc2ccc(F)cc2F)c(-c2ccc(S(C)(=O)=O)cc2)o1 [Example 29, Acetic acid [5-(2,4-difluorophenoxy)-6-(4-methanesulfonylphenyl)-4-oxo-4H-pyran-2-yl]methyl ester]
 | 780 | 27 | 20000 |  | Cc1oc(-c2ccc(S(C)(=O)=O)cc2)c(Oc2ccc(F)cc2F)c(=O)c1Br [Example 17, 3-Bromo-5-(2,4-difluorophenoxy)-6-(4-methanesulfonylphenyl)-2-methyl pyran-4-one]
124 | 170 | 124 | 21100 |  | COCc1cc(=O)c(Oc2ccc(F)cc2F)c(-c2ccc(S(C)(=O)=O)cc2)o1 [Example 26, 3-(2,4-Difluorophenoxy)-2-(4-methanesulfonylphenyl)-6-methoxymethyl pyran-4-one]
263 |  |  |  |  | CS(=O)(=O)c1ccc(-c2oc(C(=O)O)cc(=O)c2Oc2ccc(Cl)cc2)cc1 [Example 33, 5-(4-Chlorophenoxy)-6-(4-methanesulfonylphenyl)-4-oxo-4H-pyran-2-carboxylic acid]
202 to 203 |  |  |  |  | CS(=O)(=O)c1ccc(-c2oc(CO)cc(=O)c2Oc2ccc(Br)cc2F)cc1 [Example 25, 3-(2-Fluoro-4-bromophenoxy)-6-hydroxymethyl-2-(4-methanesulfonylphenyl)pyran-4-one]
156 |  |  |  |  | CS(=O)(=O)c1ccc(-c2oc(C(F)F)cc(=O)c2Oc2ccc(F)cc2F)cc1 [Example 34, 6-(1,1-Difluoromethyl)-3-(2,4-difluorophenoxy)-2-(4-methanesulfonylphenyl)pyran-4-one]
187.8 to 188.6 |  |  |  |  | Cc1c(C(F)F)oc(-c2ccc(S(C)(=O)=O)cc2)c(Oc2ccc(F)cc2F)c1=O [Example 38, 2-(1,1-Difluoromethyl)-5-(2,4-difluorophenoxy)-6-(4-methanesulfonylphenyl)-3-methylpyran-4-one]
